Target: Rat nNOS (Rattus norvegicus, UniProt P29476)
Assay: NOS inhibition assay, Ki for rat nNOS
Type: biochemical

Compound | increase in nNOS potency (8a vs 1b (m-chloro for m-fluoro)) [fold] | lower potency for rat nNOS (8b vs 8a) [fold]
Cc1cc(N)nc(C[C@@H]2CNC[C@@H]2OCCNCC(F)(F)c2cccc(Cl)c2)c1 [Compound 8a, 6-(((3R,4R)-4-(2-((2,2-Difluoro-2-(3-chlorophenyl)ethyl)amino)ethoxy)pyrrolidin-3-yl)methyl)-4-methylpyridin-2-amine] | 1.3 | –
Cc1cc(N)nc(C[C@@H]2CNC[C@@H]2OCCNCC(F)(F)c2ccccc2Cl)c1 [Compound 8b, 6-(((3R,4R)-4-(2-((2,2-Difluoro-2-(2-chlorophenyl)ethyl)amino)ethoxy)pyrrolidin-3-yl)methyl)-4-methylpyridin-2-amine] | – | 2

From article PMC3174355 (Journal of medicinal chemistry, 2011)
